Laboratory results taken from patent publication US9359371B2, “Bicyclic substituted pyrimidine compounds” (Xuanzhu Pharma Co., Ltd., priority 2012, dated 2016).
Like-named read-outs stand apart in the source and are kept apart here.

Legend:
[1] = Pharmacokinetics (PK) in SD rats; format: in vivo; conditions: rat; for half-life / bioavailability / AUC(0-inf) / Cmax / Tmax: SD, plasma; for bioavailability: read-out: F % (absolute bioavailability)
Method: Experiment 9: Assay of Pharmacokinetics (PK) of the Compounds of the Present Invention in SD Rats
Compound 1-54 of the present invention were prepared by the methods described in Example 1 to Example 54 of the present invention.
The control drug Avanafil, of which the structure was stated above, was purchased commercially.
Collection of the rat's blood: The animal was fixed. The tail was warmed with a water bath 10 min before the collection time. About 200 μL of whole blood was collected from the tail vein. The collected blood was collected into anticoagulant tubes containing heparin sodium. The blood samples were centrifuged at 4° C. by 8000 rpm for 6 min to give the plasma samples, which should be prepared within 30 min after the collection of blood. The plasma samples were stored in a freezer of −80° C. until test.
The result output by Analyst 1.5.1 of AB Company was used as the concentration of the tested sample (plasma sample). The mean value, standard deviation, variable coefficient and the like were calculated by Microsoft Excel (except for the result directly output by Analyst 1.5.1). Parameters of PK were calculated by Pharsight Phoenix 6.2 software. Formula for calculating oral bioavailability: F %=AUCinf−po*Doseiv/AUCinf−iv*Dosepo.

[2] = molecular target: PDE-5A enzyme (Homo sapiens (Human), UniProt O76074); test: Caliper Mobility-Shift PDE-5A Assay; format: biochemical; conditions: Table 1; Avanafil value is the control
Method: Experiment 1: Measurement of Enzymatic Activity In Vitro
PDE-5A enzyme: humanized PDE-5 enzyme, SignalChem, Cat#93-31G-20.
Method: enzyme assay, Caliper Mobility-Shift PDE-5A Assay:
The test compound was accurately weighed, dissolved in DMSO, mixed thoroughly and formulated into 10 mM.
The maximum final concentration of the compound was 10 μM. The plate was incubated at 30° C. for 1 h, and 20 μL of 70 μM EDTA was then added to stop the reaction. 26 μL of solution of each well was transferred to a 384-well plate. The conversion was read on a EZ reader II. The inhibition rate was calculated by the formula below, and used to calculate IC50 by Prism 5.0 Inhibition rate=[Conversion (ZPE)−Conversion (sample)]×100/[Conversion (ZPE)−Conversion (HPE)]
Note: HPE: control without enzyme; ZPE: control without a test compound

[3] = po, intragastric administration, 2 mg/kg
[4] = po, intragastric administration, 5 mg/kg

`COc1ccc(CNc2nc(N3CCC4(CC4)C3)ncc2C(=O)N[C@H]2CC[C@H](O)CC2)cc1Cl` (stereo in doubt) [Compound 43, 4-((3-chloro-4-methoxybenzyl)amino)-N-(trans-4-hydroxycyclohexyl)-2-(5-azaspiro[2.4]heptan-5-yl)pyrimidine-5-formamide] showed a half-life [1, 3] of 3.31 h, a bioavailability [1, 3] of 18% and a half-life ([1]; intravenous injection, 1 mg/kg) of 1.3 h. For the same molecule, the Cl_obs ([1]; intravenous injection, 1 mg/kg) was 3.23 L/h/kg, the Vss_obs ([1]; intravenous injection, 1 mg/kg) was 5.18 L/kg and the IC50 [2] was 0.0154 µM.

`COc1ccc(CNc2nc(N3CC4CC4C3)ncc2C(=O)NCc2ccccn2)cc1Cl` (centres unmarked) [Compound 2, 2-(3-azabicyclo[3.1.0]hexan-3-yl)-4-((3-chloro-4-methoxybenzyl)amino)-N-(pyridin-2-ylmethyl)pyrimidine-5-formamide] showed an AUC(0-inf) [1, 3] of 0.069 µg·h/mL, a Cmax [1, 3] of 0.012 µg/mL and a Tmax [1, 3] of 1 h. For the same molecule, the half-life [1, 3] was 2.95 h, the bioavailability [1, 3] was 12% and the AUC(0-inf) ([1]; intravenous injection, 1 mg/kg) was 0.219 µg·h/mL. It also gave a half-life ([1]; intravenous injection, 1 mg/kg) of 1.78 h, a Cl_obs ([1]; intravenous injection, 1 mg/kg) of 4.63 L/h/kg and a Vss_obs ([1]; intravenous injection, 1 mg/kg) of 10.57 L/kg.

`COc1ccc(CNc2nc(N3CCC4(CC3)CC4)ncc2C(=O)NCc2ncccn2)cc1Cl` [Compound 15, 4-((3-chloro-4-methoxybenzyl)amino)-N-(pyrimidin-2-ylmethyl)-2-(6-azaspiro[2.5]octan-6-yl)pyrimidine-5-formamide] showed an IC50 [2] of 0.0268 µM.

`COc1ccc(CNc2nc(N3CCC4(CC4)C3)ncc2C(=O)NCc2ccccc2)cc1Cl` [Compound 21, N-benzyl-4-((3-chloro-4-methoxybenzyl)amino)-2-(5-azaspiro[2.4]heptan-5-yl)pyrimidine-5-formamide] showed an IC50 [2] of 0.0173 µM.

For `COc1ncc(CNc2nc(N3CC4CC4C3)ncc2C(=O)NCc2ncccn2)cc1Cl` (centres unmarked) [Compound 25, 2-(3-diazabicyclo[3.1.0]hexan-3-yl)-4-(((5-chloro-6-methoxypyridin-3-yl)methyl)amino)-N-(pyrimidin-2-ylmethyl)pyrimidine-5-formamide], the IC50 [2] was 0.047 µM.

For `COc1ccc(CNc2nc(N3CC4CC4C3CO)ncc2C(=O)NCc2ncccn2)cc1Cl` (centres unmarked) [Compound 27, 4-((3-chloro-4-methoxybenzyl)amino)-2-(2-(hydroxylmethyl)-3-azabicyclo[3.1.0]hexan-3-yl)-N-(pyrimidin-2-ylmethyl)pyrimidine-5-formamide], the IC50 [2] was 0.0104 µM.

Molecule `COc1ccc(CNc2nc(N3CCC4(CCC4)C3)ncc2C(=O)NCc2ccccc2)cc1Cl` [Compound 28, N-benzyl-4-((3-chloro-4-methoxybenzyl)amino)-2-(6-azaspiro[3.4]octan-6-yl)pyrimidine-5-formamide] has an IC50 [2] of 0.0226 µM.

Molecule `COc1ccc(CNc2nc(N3CC4CC4C3CO)ncc2C(=O)NCc2ccccc2)cc1Cl` (centres unmarked) [Compound 32, N-benzyl-4-((3-chloro-4-methoxybenzyl)amino)-2-(2-(hydroxymethyl)-3-azabicyclo[3.1.0]hexan-3-yl)pyrimidine-5-formamide] has an AUC(0-inf) [1, 3] of 0.024 µg·h/mL, a Cmax [1, 3] of 0.0065 µg/mL and a Tmax [1, 3] of 0.5 h. The half-life [1, 3] was 2.26 h, the bioavailability [1, 3] was 3.5% and the AUC(0-inf) ([1]; intravenous injection, 1 mg/kg) was 0.212 µg·h/mL. It also gave a half-life ([1]; intravenous injection, 1 mg/kg) of 1.68 h, a Cl_obs ([1]; intravenous injection, 1 mg/kg) of 4.81 L/h/kg and a Vss_obs ([1]; intravenous injection, 1 mg/kg) of 12.05 L/kg. It also gave an IC50 [2] of 0.00463 µM.

`COc1ccc(CNc2nc(N3CC4CC4C3CO)ncc2C(=O)NCCN2CCOCC2)cc1Cl` (centres unmarked) [Compound 34, 4-((3-chloro-4-methoxybenzyl)amino)-2-(2-(hydroxymethyl)-3-azabicyclo[3.1.0]hexan-3-yl)-N-(2-morpholinoethyl)pyrimidine-5-formamide] gave an IC50 [2] of 0.0349 µM.

`COc1ccc(CNc2nc(N3CC4CC4C3CO)ncc2C(=O)N[C@H]2CC[C@H](O)CC2)cc1Cl` (stereo partly drawn) [Compound 35, 4-((3-chloro-4-methoxybenzyl)amino)-N-(trans-4-hydroxycyclohexyl)-2-(2-(hydroxymethyl)-3-azabicyclo[3.1.0]hexan-3-yl)pyrimidine-5-formamide] gave an IC50 [2] of 0.0472 µM.

Work on `COc1ccc(CNc2nc(N3CCC4(CC3)CC4)ncc2C(=O)N[C@H]2CC[C@H](O)CC2)cc1Cl` [Compound 36, 4-((3-chloro-4-methoxybenzyl)amino)-N-(trams-4-hydroxycyclohexyl)-2-(6-azaspiro[2.5]octan-6-yl)pyrimidine-5-formamide] yielded an IC50 [2] of 0.0524 µM.

For `COc1ccc(CNc2nc(N3CC4CC4C3CO)ncc2C(=O)NCc2ccccn2)cc1Cl` (centres unmarked) [Compound 37, 4-((3-chloro-4-methoxybenzyl)amino)-2-(2-(hydroxymethyl)-3-azabicyclo[3.1.0]hexan-3-yl)-N-(pyridin-2-ylmethyl)pyrimidine-5-formamide], the IC50 [2] was 0.0333 µM.

With `COc1ccc(CNc2nc(N3CCC4(CC4)C3)ncc2C(=O)NCCN2CCOCC2)cc1Cl` [Compound 39, 4-((3-chloro-4-methoxybenzyl)amino)-N-(2-morpholinoethyl)-2-(5-azaspiro[2.4]heptan-5-yl)pyrimidine-5-formamide] the IC50 [2] was 0.0214 µM.

In the case of `COc1ccc(CNc2nc(N3CCC4(CC4)C3)ncc2C(=O)NCc2ccccn2)cc1Cl` [Compound 40, 4-((3-chloro-4-methoxybenzyl)amino)-N-(pyridin-2-ylmethyl)-2-(5-azaspiro[2.4]heptan-5-yl)pyrimidine-5-formamide], the AUC(0-inf) [1, 3] is reported as 0.057 µg·h/mL, the Cmax [1, 3] is reported as 0.0139 µg/mL and the Tmax [1, 3] is reported as 0.5 h. It also gave a half-life [1, 3] of 3.58 h, a bioavailability [1, 3] of 9.5% and an AUC(0-inf) ([1]; intravenous injection, 1 mg/kg) of 0.205 µg·h/mL. The half-life ([1]; intravenous injection, 1 mg/kg) was 2.73 h, the Cl_obs ([1]; intravenous injection, 1 mg/kg) was 4.88 L/h/kg and the Vss_obs ([1]; intravenous injection, 1 mg/kg) was 16.40 L/kg. It also gave an IC50 [2] of 0.0119 µM.

`CCOc1ccc(CNc2nc(N3CC4CC4C3)ncc2C(=O)N[C@H]2CC[C@H](O)CC2)cc1F` (stereo partly drawn) [Compound 49, 2-(3-azabicyclo[3.1.0]hexan-3-yl)-4-((3-fluoro-4-ethoxybenzyl)amino)-N-((trans)-4-hydroxycyclohexyl)pyrimidine-5-formamide] gave an AUC(0-inf) [1, 4] of 5.83 µg·h/mL, a Cmax [1, 4] of 0.505 µg/mL and a Tmax [1, 4] of 4 h. For the same molecule, the half-life [1, 4] was 4.1 h, the bioavailability [1, 4] was 60% and the AUC(0-inf) ([1]; intravenous injection, 2 mg/kg) was 3.86 µg·h/mL. For the same molecule, the half-life ([1]; intravenous injection, 2 mg/kg) was 3.9 h, the Cl_obs ([1]; intravenous injection, 2 mg/kg) was 0.52 L/h/kg and the Vss_obs ([1]; intravenous injection, 2 mg/kg) was 2.46 L/kg.

With `CCOc1ccc(CNc2nc(N3CC4CC4C3)ncc2C(=O)N[C@H]2CC[C@H](O)CC2)cc1C` (stereo partly drawn) [Compound 51, 2-(3-azabicyclo[3.1.0]hexan-3-yl)-N-(trans-4-hydroxycyclohexyl)-4-((4-ethoxy-3-methylbenzyl)amino)pyrimidine-5-formamide] the AUC(0-inf) [1, 4] was 5.8 µg·h/mL, the Cmax [1, 4] was 0.402 µg/mL and the Tmax [1, 4] was 6 h. For the same molecule, the half-life [1, 4] was 7.3 h, the bioavailability [1, 4] was 52% and the AUC(0-inf) ([1]; intravenous injection, 2 mg/kg) was 4.4 µg·h/mL. For the same molecule, the half-life ([1]; intravenous injection, 2 mg/kg) was 8.8 h, the Cl_obs ([1]; intravenous injection, 2 mg/kg) was 0.47 L/h/kg and the Vss_obs ([1]; intravenous injection, 2 mg/kg) was 5.58 L/kg.

For `CCOc1ccc(CNc2nc(N3CC4CC4C3)ncc2C(=O)N[C@H]2CC[C@H](O)CC2)cc1Cl` (stereo partly drawn) [Compound 52, 2-(3-azabicyclo[3.1.0]hexan-3-yl)-4-((3-chloro-4-ethoxybenzyl)amino)-N-((trans)-4-hydroxycyclohexyl)pyrimidine-5-formamide], the AUC(0-inf) [1, 4] was 6 µg·h/mL, the Cmax [1, 4] was 0.392 µg/mL and the Tmax [1, 4] was 6 h. It also gave a half-life [1, 4] of 8.4 h, a bioavailability [1, 4] of 65% and an AUC(0-inf) ([1]; intravenous injection, 2 mg/kg) of 3.71 µg·h/mL. The half-life ([1]; intravenous injection, 2 mg/kg) was 4.6 h, the Cl_obs ([1]; intravenous injection, 2 mg/kg) was 0.54 L/h/kg and the Vss_obs ([1]; intravenous injection, 2 mg/kg) was 3.02 L/kg.

`COc1ccc(CNc2nc(N3CC4CC4C3)ncc2C(=O)N[C@H]2CC[C@H](O)CC2)cc1C(F)(F)F` (stereo partly drawn) [Compound 53, 2-(3-azabicyclo[3.1.0]hexan-3-yl)-N-((trans)-4-hydroxycyclohexyl)-4-((4-methoxy-3-(trifluoromethyl)benzyl)amino)pyrimidine-5-formamide] showed an AUC(0-inf) [1, 4] of 0.917 µg·h/mL, a Cmax [1, 4] of 0.156 µg/mL and a Tmax [1, 4] of 4 h. The bioavailability [1, 4] was 25%, the AUC(0-inf) ([1]; intravenous injection, 2 mg/kg) was 1.5 µg·h/mL and the half-life ([1]; intravenous injection, 2 mg/kg) was 1.8 h. The Cl_obs ([1]; intravenous injection, 2 mg/kg) was 1.34 L/h/kg and the Vss_obs ([1]; intravenous injection, 2 mg/kg) was 2.33 L/kg.

Work on `CCOc1ccc(CNc2nc(N3CC4CC4C3)ncc2C(=O)N[C@H]2CC[C@H](O)CC2)cc1C(F)(F)F` (stereo partly drawn) [Compound 54, 2-(3-azabicyclo[3.1.0]hexan-3-yl)-N-((trans)-4-hydroxycyclohexyl)-4-((4-ethoxy-3-(trifluoromethyl)benzyl)amino)pyrimidine-5-formamide] yielded an AUC(0-inf) [1, 4] of 1.42 µg·h/mL, a Cmax [1, 4] of 0.2 µg/mL and a Tmax [1, 4] of 4 h. It also gave a half-life [1, 4] of 2.7 h, a bioavailability [1, 4] of 40% and an AUC(0-inf) ([1]; intravenous injection, 2 mg/kg) of 1.43 µg·h/mL. For the same molecule, the half-life ([1]; intravenous injection, 2 mg/kg) was 2.3 h, the Cl_obs ([1]; intravenous injection, 2 mg/kg) was 1.43 L/h/kg and the Vss_obs ([1]; intravenous injection, 2 mg/kg) was 3.87 L/kg.
